Reference: patent publication US6525028B1, “Immunoeffector compounds” (Corixa Corporation, priority 2002, dated 2003)
“Also recorded” adds a separate entry of the source. Where a name gives a salt, the structure may show the parent alone.

How the values were obtained:
HBsAg = assay: Adjuvant activity towards HBsAg, IgG1 and IgG2a isotype titers by ELISA (Example 6); assay type: in vivo, BALB/c mice; details: for Serum Titers IgG1 / Serum Titers IgG2a: s.c. 2.0 μg HBsAg + 25 μg adjuvant day 0 and 21, pooled sera 21 days post secondary; for titers to HBsAg, in words: versus control group receiving antigen in PBS / positive control MPL
Procedure: Groups of BALB/c mice injected subcutaneous with 2.0 μg HBsAg(Rhein Americana, & Rhein Biotech) ±25 μg adjuvant (MPLO immunostinulant orCompound II) on day 0 and day 21. IgG1 and IgG2a isotype titers to HBsAg were determined by ELISA from pooled sera collected 21 days post secondary (Table 3). The nonimmune controls were not vaccinated.

[1] = test system: HBsAg (Hepatitis B Surface Antigen); assay: Adjuvant activity towards HBsAg, serum titers by ELISA (Example 4); assay type: in vivo, BALB/c mice; details: for Serum Titers IgG / Serum Titers IgG1 / Serum Titers IgG2a / Serum Titers IgG2b: s.c. 2 μg HBsAg + 20 μg adjuvant day 0 and 21, pooled sera (5 mice/group) 21 days post-secondary
Procedure: Vaccines were prepared by mixing the adjuvant-containing TEoA (triethanolamine) formulations with recombinant HBsAg. Titers to HBsAg were determined by ELISA from pooled sera (5 mice/group) collected 21 days post-secondary vaccination (Table 1). The nonimmune controls were not vaccinated.

Rabbit pyrogen test = assay type: in vivo, rabbits; details: for Pyrogenicity (total rise of 3 rabbits): total rise of 3 rabbits following i.v. 10 μg/Kg dose, solubilized in 10% EtOH/WFI, diluted with 5% dextrose in water
Source text: In an effort to obtain an immunostimulant that has low pyrogenicity, synthetic molecules have been prepared which share structural similarities with the MPLO immunostimulant. These novel molecules which are collectively called aminoalkyl glucosaminide phosphates (AGPs), consist of an acylated […] moiety linked to an acylated aminoalkyl group (Johnson et al. (1999) Bioorg. Med. Chem. Lett. 9: 2273-2278; PCTAWO98/50399 and references therein). […] The substitution of different chemical moieties within the aminoalkyl structures was designed into the AGPs in anticipation of optimizing stability and solubility properties. Thus the AGPs can be broadly separated into several families based on the structure of their aminoalkyl groups. After initial biological evaluation, it became apparent that the aminoalkyl motifs could dramatically affect the pyrogenic properties of the AGPs (see U.S. patent application Ser. No. 09/074,720 filed May 7, 1998, and U.S. Pat. Nos. 6,113,918 and 6,303,347). As part of the initial screening process of the synthetic adjuvant compounds, rabbit pyrogenicity data was determined. […] Here we report on studies of the adjuvant properties of a class of AGPs which induce minimal activity in both the rabbit pyrogen test and the ex vivo cytokine assay.

IL-1β = assay: Ex vivo cytokine induction, IL-1β by sandwich ELISA (Example 8); assay type: cell-based, human; details: for relative induction of IL-1β: level induced with MPL immunostimulant assigned a value of 1
Procedure: (§1) The effects of Compound II on the elaboration of TNF-α and IL-1β was measured under ex vivo conditions on human peripheral blood mononuclear cells. MPL® immunostimulant and Compound II were formulated in aqueous solutions of 0.2% TEoA/WFI.
(§2) Human whole blood was used to evaluate the ability of glycolipids (AGPS) to induce proinflammatory cytokines. Human whole blood is collected into heparinized tubes and 0.45 ml of whole blood is admixed with 0.05 ml phosphate buffered saline (PBS, pH 7.4) containing the glycolipid (i.e., the test compounds). The tubes are incubated for 4 hr at 37° C. on a shaker apparatus. The samples are then diluted with 1.5 ml sterile PBS and centrifuged. The supernatants are removed and analyzed for […] TNF-α and IL-1β by sandwich ELISA using R&D Systems' Quantikine immunoassay kits for human TNF-α and IL-1β.

TNF-α = assay: Ex vivo cytokine induction, TNF-α by sandwich ELISA (Example 8); assay type: cell-based; details: human blood cells, 4 hr at 37° C.
Procedure: as §1, §2

[2] = test system: hemagglutinin protein in FluZone influenza vaccine; assay: Adjuvant activity towards hemagglutinin protein in FluZone influenza vaccine, FluZone ELISA (Example 5); details: for Serum Titers IgG / Serum Titers IgG1 / Serum Titers IgG2a / Serum Titers IgG2b: s.c. 0.2 μg hemagglutinin in FluZone + 20 μg adjuvant day 0 and 14, pooled sera of 5 mice 14 days post secondary
Procedure: Groups of BALB/c mice (Jackson Laboratories Bar Harbor, Me.) 6-8 weeks old were injected subcutaneous with 0.2 μg hemagglutinin protein in FluZone influenza vaccine (Connaught Laboratories, Swiftwater, Pa.) ±20 μg adjuvant (MPL® immunostimulant orCompound II) on day 0 and day 14. […] The nonimmune controls were not vaccinated. The initial dilutions used on sera from test groups was 1:1600.

[3] = test system: Inducible Nitric Oxide Synthase (iNOS); assay: iNOS induction in IFN-γ primed J774 murine macrophages, Greiss reagent nitrite release (Example 9); assay type: cell-based; details: IFN-γ primed J774 cells
Procedure: This example illustrates the effects of various glycolipids on iNOS induction in J774 murine macrophages. The murine macrophage cell line J774 can be primed by IFN-γ in vitro and is very responsive to subsequent LPS stimulation of iNOS upregulation as measured by a standard Greiss reagent ELISA assay procedure. The assay utilizes J774 cells seeded at 1×10^6/mL with 30 mL/flask and with IFN-γ added at 100 units/mL for 16-24 hrs. Cells are then harvested and washed and resuspended at 2×10^5/well in a 96-well plate and allowed to adhere. Glycolipid compounds are serially diluted into the wells for a test group and the resulting cultures are incubated for another 36-40 hrs before culture supernatants are collected from Greiss reagent analysis of nitrite release (Green et al. (1982) Anal. Biochem. 126: 131-138). Nitrite content closely parallels iNOS function.
Potency was determined as the concentration (ng/mL) of glycolipid in culture capable of inducing one-half maximal induction of nitrite (ED50). The lower the ED50 number, the greater the potency for iNOS induction. The ED50 was cacluated according to methods set out in Johnson et al., (1999) J Med Chem. 42: 4640-4649.

[4] = cited from earlier work
[5] = versus control sera receiving antigen alone

| Molecule | Serum Titers IgG1 (HBsAg) | Serum Titers IgG2a (HBsAg) | titers to HBsAg, in words (HBsAg) | Serum Titers IgG [1] | Serum Titers IgG1 [1] | Serum Titers IgG2a [1] | Serum Titers IgG2b [1] | Pyrogenicity (total rise of 3 rabbits) (Rabbit pyrogen test) | relative induction of IL-1β (IL-1β) | Serum Titers IgG [2] | Serum Titers IgG1 [2] | Serum Titers IgG2a [2] | Serum Titers IgG2b [2] | other results |
| --- | --- | --- | --- | --- | --- | --- | --- | --- | --- | --- | --- | --- | --- | --- |
| CCCCCCCCCCCCCC(=O)O[C@H](CCCCCCCCCCC)CC(=O)N[C@H]1[C@H](OC[C@@H]2CCCN2C(=O)C[C@@H](CCCCCCCCCCC)OC(=O)CCCCCCCCCCCCC)O[C@H](CO)[C@@H](OP(=O)(O)O)[C@@H]1OC(=O)C[C@@H](CCCCCCCCCCC)OC(=O)CCCCCCCCCCCCC [Compound II, N-[(R)-3-tetradecanoyloxytetradecanoyl]-(S)-2-pyrrolidinylmethyl 2-deoxy-4-O-phosphono-2-[(R)-3-tetradecanoyloxytetradecanoylamino]-3-O-[(R)-3-tetradecanoyloxytetradecanoyl]-β-D-glucopyranoside triethylammonium salt] | 32,000 | 2,048,000 | increased titers compared to the control group | 409,600 | 204,800 | 409,600 | 51,200 | 0.3 °C | ≤ 0.05 | 51,200 | 102,400 | 25,600 | 6400 | anti-HBsAg responses (serum titers), in words [1, 5]: significantly higher than control sera receiving antigen alone; fever response in the rabbit pyrogen test, in words (Rabbit pyrogen test; i.v. 10 μg/kg): apparent lack of fever; induction of IL-1β, in words (IL-1β; ex vivo, human blood cells, 4 hr at 37° C., Compound II at 1, 5 and 10 μg/ml): did not produce detectable levels of IL-1β; also recorded: without inducing detectable levels; induction of TNF-α, in words (TNF-α; Compound II at 1, 5 and 10 μg/ml): did not produce levels of TNF-α that could be detected; also recorded: without inducing detectable levels; titers to FluZone, in words [2, 5]: significantly higher than control sera receiving antigen alone |
| Monophosphoryl lipid A [MPL® immunostimulant, reference compound] | 128,000 | 1,024,000 |  | 409,600 | 204,800 | 204,800 | 51,200 | 2-3 °C | 1 | 102,400 | 102,400 | 25,600 | 12,800 | iNOS induction / nitrite elaboration, in words [3]: high levels of nitrite elaboration; dose that can be safely administered to humans ([4]; humans): at least 20 μg/kg; dose levels at which increases in temperature, flu-like symptoms, increasing heart rate and modest decreases in blood pressure can occur ([4]; some patients): ≥ 0.01 mg/kg; concentration effective at inducing TNF-α (TNF-α): 100 to 10,000 ng/mL |
| N-[(R)-3-tetradecanoyloxytetradecanoyl]-(S)-2-pyrrolidinylmethyl 2-deoxy-4-O-phosphono-2-[(R)-3-tetradecanoyloxytetradecanoylamino]-3-O-[(R)-3-tetradecanoyloxytetradecanoyl]-β-D-glucopyranoside triethylammonium salt [Compound II] |  |  | titers equivalent to the positive controls |  |  |  |  |  |  |  |  |  |  |  |
